{
  "source": "paper PMC10146281",
  "about": "“Pharmacokinetic and Pharmacodynamic Characteristics of Pelubiprofen Tromethamine vs. Pelubiprofen in Healthy Subjects” (Pharmaceutics, 2023)",
  "key": {"[1]": {"test": "Study I (DW1809-102): pharmacokinetic analysis of plasma pelubiprofen (LC-MS/MS) after single oral dose", "conditions": "for Tmax: N = 35, median (minimum–maximum)", "procedure": "(§1) In this study, the two independent clinical trials (Study I and II) were conducted using an identical randomized, open-label, oral, single-dose, fasted, two-sequence, four-period, crossover design. Due to the known pharmacokinetic characteristics of pelubiprofen with its large intra-subject variability, the replicated design was chosen to calculate the true intra-coefficient of variation in both studies. Study I tested 25 mg of pelubiprofen tromethamine (36.73 mg of pelubiprofen tromethamine salt; 25 mg of pelubiprofen, Daewon Pharmaceutical Co., Ltd., Seoul, Republic of Korea) against 30 mg of pelubiprofen (30.0 mg of pelubiprofen, Daewon Pharmaceutical Co., Ltd., Seoul, Republic of Korea) as the reference. Study II tested 30 mg of pelubiprofen tromethamine (44.07 mg of pelubiprofen tromethamine salt; 30 mg of pelubiprofen, Daewon Pharmaceutical Co., Ltd., Seoul, Republic of Korea) against 30 mg of pelubiprofen (30.0 mg of pelubiprofen, Daewon Pharmaceutical Co., Ltd., Seoul, Republic of Korea) as the reference. The target number of subjects in both Study I and II was set to N = 36 (N = 18 for each sequence group) (Figure 1, Table 1).\n(§2) The subject screening in both Study I and Study II was performed in the four weeks ([…]) prior to the first administration (Day 1). […] In addition, the screened subjects fasted for at least 10 h, excluding drinking water, from approximately 10 p.m. until administration of the investigational drug. The randomization in both Study I and II led the subjects to receive oral administration of a single test or reference tablet with approximately 150 mL of water at each time point from approximately 8 a.m. at approximately 2 min intervals according to their numbers. The subjects in both Study I and II were prohibited from drinking water for an hour before and after the administration, except during drug administration. The post-administration blood sampling and tests were performed as scheduled. All subjects were provided with identical meals approximately 4 h after blood sampling. The subjects in both Study I and II received the blood sampling and tests for the pharmacokinetic (PK) evaluation approximately 8 h after administration. Then, they were discharged following the completion of the first period of the study.\n(§3) To analyze the PK characteristics in both Study I and II, approximately 5 mL of blood was sampled before administration (0 h) and at the following time points after administration; 0.083 h (5 min), 0.167 h (10 min), 0.33 h (20 min), and 0.5, 0.75, 1, 1.5, 2, 2.5, 3, 3.5, 4, 6, and 8 h. Therefore, for each subject, the blood sampling was performed 15 times in each period, resulting in a total of 60 times. All four periods proceeded on the same schedule as the first period in both Study I and II. The wash-out period between each consecutive period was set to a minimum of four days. The subjects in both Study I and II, after completing all four periods, chose a day from Day 5 to Day 7 of the final administration in the four period for visiting the center to undergo post study visit.\n(§4) The validation of the quantitative analysis of plasma pelubiprofen in this study was performed in accordance with the following guidelines: the Validation Protocol for Pelubiprofen Quantification, the domestic Standard Operating Procedure (SOP) for Bioanalyses, the Guideline of Bioanalytical Method Validation (MFDS, December 2013), and Bioanalytical Method Validation Guidance for Industry (USA FDA, 2018). The plasma pelubiprofen was pretreated using protein precipitation in a dark room at room temperature (15–25 °C) and under shielded light for the subsequent liquid chromatograph tandem mass spectrometry (LC-MS/MS) analysis. The tested items in the validation included the intra-batch and inter-batch accuracy, precision, selectivity, linearity, and stability."}, "[2]": {"test": "Study II (DW1809-103): pharmacokinetic analysis of plasma pelubiprofen (LC-MS/MS) after single oral dose", "procedure": "as §1, §2, §3, §4"}, "[3]": {"test": "Study I safety and tolerability evaluation (adverse events)", "format": "in vivo, human", "conditions": "for adverse events: Study I, 36 subjects evaluated, all mild", "procedure": "(§5) In both Study I and II, the safety evaluation was performed on subjects administered with the investigational drug at least once. Any clinically significant findings in the interview, physical examination, vital signs, 12-lead electrocardiogram (ECG), the clinical laboratory test, etc., during the study period were collected as adverse events, which were subsequently evaluated for the incidence of serious adverse events, severity, causal relationship, etc. All relevant data were collected through monitoring by the investigator and voluntary reporting by the subjects. To collect additional data, interview and physical examination were performed where necessary. The investigator carried out the follow-up monitoring of the subjects with adverse events until the symptoms subsided and abnormal test values returned to a healthy baseline or until a satisfactory explanation for the observed change could be provided."}, "[4]": {"test": "Study II safety and tolerability evaluation (adverse events)", "format": "in vivo, human", "conditions": "treatment of test (30 mg pelubiprofen tromethamine), 36 subjects evaluated, mild, 'not related'", "procedure": "as §5"}, "[5]": {"design": "method as in PMID 34070062", "conditions": "non-clinical studies; cited from earlier work"}, "[6]": {"design": "method as in earlier work", "conditions": "cited from earlier work"}, "[7]": {"conditions": "Study I, healthy subjects, single oral 25 mg pelubiprofen tromethamine, fasted, N = 35, mean ± SD"}, "[8]": {"conditions": "Study II, 30 mg pelubiprofen tromethamine vs. 30 mg pelubiprofen"}, "[9]": {"conditions": "Study II, healthy subjects, single oral 30 mg pelubiprofen tromethamine, fasted, N = 33, mean ± SD"}},
  "data": [
    {"compound": "CC(C(=O)O)c1ccc(/C=C2\\CCCCC2=O)cc1", "note": "(stereo not drawn) [Pelubiprofen Tromethamine, pelubiprofen tromethamine]", "values": [
      {"measurement": "time after oral administration at which plasma concentration of pelubiprofen returned to baseline", "setting": "[1]; Study I, 25 mg pelubiprofen tromethamine dose group", "result": "approximately 4 h"},
      {"measurement": "bioequivalence evaluation of Cmax and AUC0-t vs. 30 mg pelubiprofen", "setting": "[1]; Study I, 25 mg pelubiprofen tromethamine, criteria 90% CI log 0.70–log 1.43 (Cmax), log 0.8–log 1.25 (AUC0-t)", "result": "satisfied the bioequivalence study criteria"},
      {"measurement": "AUC0-inf", "setting": "[1]; [7]", "result": "372.12 ± 92.16", "unit": "ng·h/mL"},
      {"measurement": "AUC0-t", "setting": "[1]; [7]", "result": "370.76 ± 91.86", "unit": "ng·h/mL"},
      {"measurement": "CL/F", "setting": "[1]; [7]", "result": "71.78 ± 19.79", "unit": "L/h"},
      {"measurement": "Cmax", "setting": "[1]; [7]", "result": "645.80 ± 237.73", "unit": "ng/mL"},
      {"measurement": "Vd/F", "setting": "[1]; [7]", "result": "87.43 ± 40.63", "unit": "L"},
      {"measurement": "t1/2", "setting": "[1]; [7]", "result": "52.2 ± 23.4", "unit": "min"},
      {"measurement": "Tmax", "setting": "[1]; Study I, healthy subjects, single oral 25 mg pelubiprofen tromethamine, fasted", "result": "0.33 (0.17–1.50) h"},
      {"measurement": "Tmax", "setting": "[1]; Study I, healthy subjects, single oral 25 mg pelubiprofen tromethamine, fasted, listed as pelubiprofen tromethamine", "result": "approximately 0.33 h"},
      {"measurement": "increase of AUC0-t compared to the reference", "setting": "[2]; [8]", "result": 24, "unit": "%"},
      {"measurement": "increase of Cmax compared to the reference", "setting": "[2]; [8]", "result": 29, "unit": "%"},
      {"measurement": "AUC0-inf", "setting": "[2]; [9]", "result": "447.75 ± 123.40", "unit": "ng·h/mL"},
      {"measurement": "AUC0-t", "setting": "[2]; [9]", "result": "446.44 ± 123.33", "unit": "ng·h/mL"},
      {"measurement": "CL/F", "setting": "[2]; [9]", "result": "72.08 ± 19.97", "unit": "L/h"},
      {"measurement": "Cmax", "setting": "[2]; [9]", "result": "770.01 ± 347.86", "unit": "ng/mL"},
      {"measurement": "Vd/F", "setting": "[2]; [9]", "result": "94.56 ± 52.40", "unit": "L"},
      {"measurement": "t1/2", "setting": "[2]; [9]", "result": "57 ± 33.6", "unit": "min"},
      {"measurement": "Tmax", "setting": "[2]; Study II, healthy subjects, single oral 30 mg pelubiprofen tromethamine, fasted, N = 33, median (minimum–maximum)", "result": "0.33 (0.17–2.50) h"},
      {"measurement": "tolerability and safety", "setting": "[3]; 25 mg pelubiprofen tromethamine compared to 30 mg pelubiprofen, healthy subjects, single oral dose", "result": "outstanding tolerability and safety"},
      {"measurement": "adverse events", "setting": "[3]; treatment of the test (25 mg pelubiprofen tromethamine)", "result": "one case of adverse events"},
      {"measurement": "adverse events", "setting": "[4]", "result": "one case of adverse events"},
      {"measurement": "solubility and absorption compared to pelubiprofen", "setting": "[5]", "result": "enhanced solubility and absorption"}
    ]},
    {"compound": "CC(C(=O)O)c1ccc(/C=C2\\CCCCC2=O)cc1", "note": "(stereo not drawn) [Pelubiprofen, 2-[4-(oxocyclohexylidenemethyl)-phenyl] propionic acid]", "values": [
      {"measurement": "CL/F", "setting": "[1]; Study I, healthy subjects, single oral 30 mg pelubiprofen (reference), fasted, N = 35, mean ± SD", "result": "92.12 ± 28.68", "unit": "L/h"},
      {"measurement": "Tmax", "setting": "[1]; Study I, healthy subjects, single oral 30 mg pelubiprofen (reference), fasted", "result": "0.33 (0.17–3.50) h"},
      {"measurement": "highest within-subject variability for Cmax", "setting": "[1]; Study I, reference 30 mg pelubiprofen, four-period repeated crossover", "result": "approximately 58%"},
      {"measurement": "AUC0-inf", "setting": "[1]; human, plasma, po, 30 mg", "result": "355 ± 103", "unit": "ng·h/mL"},
      {"measurement": "AUC0-t", "setting": "[1]; human, plasma, po, 30 mg", "result": "352 ± 103", "unit": "ng·h/mL"},
      {"measurement": "Cmax", "setting": "[1]; human, plasma, po, 30 mg", "result": "619 ± 368", "unit": "ng/mL"},
      {"measurement": "Vd/F", "setting": "[1]; human, plasma, po, 30 mg", "result": "125 ± 58.8", "unit": "L"},
      {"measurement": "half-life", "setting": "[1]; human, plasma, po, 30 mg", "result": "59.4 ± 32.4", "unit": "min"},
      {"measurement": "Tmax", "setting": "[1]; human, plasma, po, 30 mg, Tmax, Study I, healthy subjects, single oral 30 mg pelubiprofen (reference), fasted", "result": "~19.8", "unit": "min"},
      {"measurement": "CL/F", "setting": "[2]; Study II, healthy subjects, single oral 30 mg pelubiprofen (reference), fasted, N = 33, mean ± SD", "result": "90.55 ± 32.04", "unit": "L/h"},
      {"measurement": "highest within-subject variability for Cmax", "setting": "[2]; Study II, reference 30 mg pelubiprofen, fasting, four-period repeated crossover", "result": "approximately 58%"},
      {"measurement": "AUC0-inf", "setting": "[2]; human, plasma, po, 30 mg", "result": "366 ± 108", "unit": "ng·h/mL"},
      {"measurement": "AUC0-t", "setting": "[2]; human, plasma, po, 30 mg", "result": "365 ± 108", "unit": "ng·h/mL"},
      {"measurement": "Cmax", "setting": "[2]; human, plasma, po, 30 mg", "result": "619 ± 336", "unit": "ng/mL"},
      {"measurement": "Tmax", "setting": "[2]; human, plasma, po, 30 mg", "result": 30, "unit": "min"},
      {"measurement": "Vd/F", "setting": "[2]; human, plasma, po, 30 mg", "result": "119 ± 94.1", "unit": "L"},
      {"measurement": "half-life", "setting": "[2]; human, plasma, po, 30 mg", "result": "55.8 ± 41.4", "unit": "min"},
      {"measurement": "adverse events", "setting": "[3]; treatment of reference (30 mg pelubiprofen)", "result": "three cases of adverse events"},
      {"measurement": "protein binding rate", "setting": "[6]", "result": "high protein binding rate"}
    ]}
  ]
}
